Reference: the supplement of paper PMC10307832

What follows are cell lines tested with Cc1ccc(C(=O)Nc2ccc(CN3CCN(C)CC3)c(C(F)(F)F)c2)cc1C#Cc1cnc2cccnn12 [Ponatinib] + CC(=O)c1c(C)c2cnc(Nc3ccc(N4CCNCC4)cn3)nc2n(C2CCCC2)c1=O [Palbociclib] (partner 0.5 µM) (assay: relative viability (nuclei count vs DMSO), 5 days (fraction); higher = more cells survive). Conditions: first compound 0.002 µM.
Summary of the method: (§1)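 Five library-drug doses in √10 steps were combined with a fixed anchor-drug dose, or a single drug was given alone, by pin tool to lung cancer cell lines in 1536-well plates the day after seeding. Nuclei were stained and counted after 5 days. Relative viability is the nuclei count in treated wells over that in vehicle wells, taken as the median of duplicate plates.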

Cell Line | relative viability
NCI-H460 | 0.218
NCI-H727 | 0.737
NCI-H1734 | 0.34
NCI-H520 | 0.215
NCI-H2405 | 0.487
SW 1573 | 0.411
NCI-H1793 | 0.328
201T | 0.367
NCI-H1915 | 0.522
HCC-827 | 0.537
LXF-289 | 0.606
NCI-H23 | 0.521
NCI-H650 | 0.313
CAL-12T | 0.295
NCI-H1651 | 0.529
EPLC-272H | 0.292
NCI-H2228 | 0.587

Same assay, conditions: first compound 0.006325 µM

Cell Line | relative viability
NCI-H460 | 0.212
NCI-H727 | 0.708
NCI-H1734 | 0.358
NCI-H520 | 0.207
NCI-H2405 | 0.476
SW 1573 | 0.402
NCI-H1793 | 0.327
201T | 0.359
NCI-H1915 | 0.554
HCC-827 | 0.483
LXF-289 | 0.613
NCI-H23 | 0.495
NCI-H650 | 0.321
CAL-12T | 0.524
NCI-H1651 | 0.539
EPLC-272H | 0.34
NCI-H2228 | 0.647

Same assay, conditions: first compound 0.06325 µM

Cell Line | relative viability
NCI-H460 | 0.223
NCI-H727 | 0.769
NCI-H1734 | 0.347
NCI-H520 | 0.172
NCI-H2405 | 0.501
SW 1573 | 0.341
NCI-H1793 | 0.394
201T | 0.351
NCI-H1915 | 0.523
HCC-827 | 0.533
LXF-289 | 0.6
NCI-H23 | 0.683
NCI-H650 | 0.295
CAL-12T | 0.622
NCI-H1651 | 0.557
EPLC-272H | 0.376
NCI-H2228 | 0.728

Same assay, conditions: first compound 0.2 µM

Cell Line | relative viability
NCI-H460 | 0.177
NCI-H727 | 0.654
NCI-H1734 | 0.284
NCI-H520 | 0.16
NCI-H2405 | 0.473
SW 1573 | 0.401
NCI-H1793 | 0.413
201T | 0.328
NCI-H1915 | 0.466
HCC-827 | 0.497
LXF-289 | 0.611
NCI-H23 | 0.509
NCI-H650 | 0.314
CAL-12T | 0.535
NCI-H1651 | 0.552
EPLC-272H | 0.332
NCI-H2228 | 0.593

These cell lines were tested with Cc1ccc(C(=O)Nc2ccc(CN3CCN(C)CC3)c(C(F)(F)F)c2)cc1C#Cc1cnc2cccnn12 [Ponatinib] + N=C(N)NC(=N)NCCc1ccccc1 [Phenformin] (partner 250 µM) in the same assay as above. Conditions: first compound 0.002 µM.
Summary of the method: as §1

Cell Line | relative viability
NCI-H460 | 0.489
NCI-H727 | 0.537
NCI-H1734 | 0.395
NCI-H520 | 0.392
NCI-H2405 | 0.359
SW 1573 | 0.35
NCI-H1793 | 0.33
201T | 0.417
NCI-H1915 | 0.332
HCC-827 | 0.411
LXF-289 | 0.513
NCI-H23 | 0.759
NCI-H650 | 0.407
CAL-12T | 0.529
NCI-H1651 | 0.301
EPLC-272H | 0.305
NCI-H2228 | 0.356

Same assay, conditions: first compound 0.006325 µM

Cell Line | relative viability
NCI-H460 | 0.501
NCI-H727 | 0.507
NCI-H1734 | 0.393
NCI-H520 | 0.552
NCI-H2405 | 0.44
SW 1573 | 0.392
NCI-H1793 | 0.324
201T | 0.458
NCI-H1915 | 0.363
HCC-827 | 0.429
LXF-289 | 0.545
NCI-H23 | 0.756
NCI-H650 | 0.426
CAL-12T | 0.541
NCI-H1651 | 0.373
EPLC-272H | 0.336
NCI-H2228 | 0.356

Same assay, conditions: first compound 0.06325 µM

Cell Line | relative viability
NCI-H460 | 0.549
NCI-H727 | 0.605
NCI-H1734 | 0.347
NCI-H520 | 0.291
NCI-H2405 | 0.386
SW 1573 | 0.292
NCI-H1793 | 0.397
201T | 0.438
NCI-H1915 | 0.371
HCC-827 | 0.416
LXF-289 | 0.525
NCI-H23 | 0.815
NCI-H650 | 0.438
CAL-12T | 0.668
NCI-H1651 | 0.299
EPLC-272H | 0.292
NCI-H2228 | 0.342

Same assay, conditions: first compound 0.2 µM

Cell Line | relative viability
NCI-H460 | 0.573
NCI-H727 | 0.532
NCI-H1734 | 0.303
NCI-H520 | 0.18
NCI-H2405 | 0.329
SW 1573 | 0.405
NCI-H1793 | 0.326
201T | 0.42
NCI-H1915 | 0.356
HCC-827 | 0.348
LXF-289 | 0.445
NCI-H23 | 0.593
NCI-H650 | 0.419
CAL-12T | 0.601
NCI-H1651 | 0.265
EPLC-272H | 0.316
NCI-H2228 | 0.357

What follows are cell lines tested with Cc1ccc(C(=O)Nc2ccc(CN3CCN(C)CC3)c(C(F)(F)F)c2)cc1C#Cc1cnc2cccnn12 [Ponatinib] + COc1cccc2cc(-c3nc([C@H]4CC[C@H](C(=O)O)CC4)n4ncnc(N)c34)[nH]c12 [OSI-027] (partner 0.5 µM) in the same assay as above. Conditions: first compound 0.002 µM.
Summary of the method: as §1

Cell Line | relative viability
NCI-H460 | 0.605
NCI-H727 | 0.567
NCI-H1734 | 0.58
NCI-H520 | 0.273
NCI-H2405 | 0.613
SW 1573 | 0.567
NCI-H1793 | 0.281
